In patent US20230398125A1, “TREATING HEPATITIS” (Albireo AB, priority 2022, published 2023):
Like-named read-outs stand apart in the source and are kept apart here.

Columns and labels:
[1] = Pharmacokinetic phase: plasma exposure after oral dosing in non-infected PXB mice; format: in vivo; conditions: for concentration at 0.5 h / concentration at 1 h / concentration at 2 h / concentration at 4 h / concentration at 6 h / concentration at 24 h: PXB, mouse, plasma, po
Experimental: Thirty microliters (30 μL) of blood were collected from all animals under isoflurane anesthesia via the retro-orbital plexus/sinus using sodium heparin-coated calibrated pipettes according to the collection schedule shown in Table 7. The individual blood samples of the animals were transferred to labeled microtubes and stored under chilled conditions until centrifugation at 3500×g, 5° C. for 10 minutes to obtain plasma. Individual plasma samples were transferred into separately labeled microtubes and snap frozen in liquid nitrogen. The plasma exposure of Compound 1 from the pharmacokinetic phase was measured via LC/MS- MS. The lower limit of quantitation was 1 ng/mL.

M. fascicularis Ntcp = target: T1, M. fascicularis Ntcp (Macaca fascicularis, UniProt G7PAR4); assay: [3H]TC transport in HEK293 cells transiently transfected with M. fascicularis Ntcp; format: cell-based; conditions: read-out: IC50 bile acid transport via M. fascicularis Ntcp
T1 construct: expressed in transfected cells; host or cells: GripTite 293 MSR (HEK293) cells, transient, Lipofectamine 2000
T1 sequence (G7PAR4 1-349): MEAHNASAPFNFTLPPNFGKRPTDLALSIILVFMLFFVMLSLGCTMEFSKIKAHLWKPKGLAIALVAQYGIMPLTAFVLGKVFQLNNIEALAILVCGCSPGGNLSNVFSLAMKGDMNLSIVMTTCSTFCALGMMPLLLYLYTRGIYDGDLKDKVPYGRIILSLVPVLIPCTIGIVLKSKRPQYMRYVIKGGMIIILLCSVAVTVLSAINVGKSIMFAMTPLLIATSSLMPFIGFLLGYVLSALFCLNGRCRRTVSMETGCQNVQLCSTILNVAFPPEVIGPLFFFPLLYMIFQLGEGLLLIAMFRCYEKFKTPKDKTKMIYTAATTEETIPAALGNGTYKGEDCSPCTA
Experimental: GripTite 293 MSR cells (here referred to as HEK293 cells, Invitrogen), a modified HEK293 cell line expressing human macrophage scavenger receptor for stronger adhesion, were maintained at 37° C., 5% CO2 and 95% humidity in DMEM/F-12 medium (Thermo Fisher Scientific) supplemented with 10% fetal calf serum (Sigma), 4 mM L-glutamine (PAA) and penicillin/streptomycin. HEK293 cells were transiently transfected with the M. fascicularis Ntcp cDNA construct for transport and peptide binding assays. Transfection was performed with Lipofectamine 2000 (Thermo Fisher Scientific). […]
Bile acid transport measurements were performed in the NTCP-HEK293 cells with tritium-labelled taurocholic acid (here referred to as [^3H]TC) (20 Ci/mmol, 0.09 mCi/mL, Perkin Elmer, Waltham, USA). […] Cell-associated radioactivity of [^3H]TC or [^3H]preS1 was quantified by liquid scintillation counting in a Packard Microplate Scintillation Counter TopCount NXT (Packard Instrument Company, Meriden, USA). Transport rates and [^3H]preS1 binding were determined in counts per minute (cpm). The mean of the 0% control was subtracted and the net [^3H]TC transport rates and net [^3H]preS1 binding rates, respectively, were expressed as % of control. IC50 values were calculated from quadruplicate determinations by GraphPad Prism 6 (GraphPad, San Diego, Calif., USA). […]

[2] = 10 mg/kg, non-infected PXB mice, 10 mg/kg p.o., animal 101, read-out: Plasma conc.
[3] = 10 mg/kg, non-infected PXB mice, 10 mg/kg p.o., animal 102, read-out: Plasma conc.
[4] = 10 mg/kg, non-infected PXB mice, 10 mg/kg p.o., animal 103, read-out: Plasma conc.
[5] = 10 mg/kg, non-infected PXB mice, 10 mg/kg p.o., mean of 3 animals, read-out: Plasma conc. Mean ± SD
[6] = 10 mg/kg, non-infected PXB mice, 10 mg/kg p.o., animal 201, read-out: Plasma conc.
[7] = 10 mg/kg, non-infected PXB mice, 10 mg/kg p.o., animal 202, read-out: Plasma conc.
[8] = 10 mg/kg, non-infected PXB mice, 10 mg/kg p.o., animal 203, read-out: Plasma conc.
[9] = 30 mg/kg, non-infected PXB mice, 30 mg/kg p.o., animal 301, read-out: Plasma conc.
[10] = 30 mg/kg, non-infected PXB mice, 30 mg/kg p.o., animal 302, read-out: Plasma conc.
[11] = 30 mg/kg, non-infected PXB mice, 30 mg/kg p.o., animal 303, read-out: Plasma conc.
[12] = 30 mg/kg, non-infected PXB mice, 30 mg/kg p.o., mean of 3 animals, read-out: Plasma conc. Mean ± SD
[13] = 30 mg/kg, non-infected PXB mice, 30 mg/kg p.o., animal 401, read-out: Plasma conc.
[14] = 30 mg/kg, non-infected PXB mice, 30 mg/kg p.o., animal 402, read-out: Plasma conc.
[15] = 30 mg/kg, non-infected PXB mice, 30 mg/kg p.o., animal 403, read-out: Plasma conc.

For `CCCCC1CN(c2ccccc2)c2cc(SC)c(O/C=C(\F)C(=O)O)cc2S(=O)(=O)N1C` (stereo not drawn) [Compound 1, (Z)-3-((3-butyl-2-methyl-7-(methylthio)-1,1-dioxido-5-phenyl-2,3,4,5-tetrahydro-1,2,5-benzothiadiazepin-8-yl)oxy)-2-fluoroacrylic acid], the “plasma exposure versus dose” value ([1]; 10 and 30 mg/kg p.o.) was “increased with increased dose”, the detection in plasma ([1]; 10 and 30 mg/kg p.o., non-infected PXB mice) was “detected in plasma throughout the 24-hour time period” and the concentration at 0.5 h [1, 2] was 1290 ng/mL. It also gave a concentration at 0.5 h [1, 3] of 2650 ng/mL, a concentration at 0.5 h [1, 4] of 727 ng/mL and a concentration at 0.5 h [1, 5] of 1560 ± 990 ng/mL. It also gave a concentration at 1 h [1, 6] of 492 ng/mL, a concentration at 1 h [1, 7] of 763 ng/mL and a concentration at 1 h [1, 8] of 1810 ng/mL. It also gave a concentration at 1 h [1, 5] of 1020 ± 690 ng/mL, a concentration at 2 h [1, 2] of 194 ng/mL and a concentration at 2 h [1, 3] of 322 ng/mL. It also gave a concentration at 2 h [1, 4] of 177 ng/mL, a concentration at 2 h [1, 5] of 231 ± 79 ng/mL and a concentration at 4 h [1, 6] of 111 ng/mL. The concentration at 4 h [1, 7] was 61.4 ng/mL, the concentration at 4 h [1, 8] was 587 ng/mL and the concentration at 4 h [1, 5] was 253 ± 290 ng/mL. It also gave a concentration at 6 h [1, 2] of 46.2 ng/mL, a concentration at 6 h [1, 3] of 63.5 ng/mL and a concentration at 6 h [1, 4] of 130 ng/mL. For the same compound, the concentration at 6 h [1, 5] was 80 ± 44 ng/mL, the concentration at 24 h [1, 6] was 25.3 ng/mL and the concentration at 24 h [1, 7] was 27.2 ng/mL. For the same compound, the concentration at 24 h [1, 8] was 1.4 ng/mL, the concentration at 24 h [1, 5] was 18 ± 14 ng/mL and the concentration at 0.5 h [1, 9] was 1880 ng/mL. For the same compound, the concentration at 0.5 h [1, 10] was 2910 ng/mL, the concentration at 0.5 h [1, 11] was 6810 ng/mL and the concentration at 0.5 h [1, 12] was 3870 ± 2600 ng/mL. For the same compound, the concentration at 1 h [1, 13] was 4560 ng/mL, the concentration at 1 h [1, 14] was 5320 ng/mL and the concentration at 1 h [1, 15] was 1470 ng/mL. It also gave a concentration at 1 h [1, 12] of 3780 ± 2000 ng/mL, a concentration at 2 h [1, 9] of 2420 ng/mL and a concentration at 2 h [1, 10] of 590 ng/mL. It also gave a concentration at 2 h [1, 11] of 3040 ng/mL, a concentration at 2 h [1, 12] of 2020 ± 1300 ng/mL and a concentration at 4 h [1, 13] of 1120 ng/mL. It also gave a concentration at 4 h [1, 14] of 1090 ng/mL, a concentration at 4 h [1, 15] of 217 ng/mL and a concentration at 4 h [1, 12] of 811 ± 510 ng/mL. The concentration at 6 h [1, 9] was 554 ng/mL, the concentration at 6 h [1, 10] was 99.8 ng/mL and the concentration at 6 h [1, 11] was 1490 ng/mL. The concentration at 6 h [1, 12] was 715 ± 700 ng/mL, the concentration at 24 h [1, 13] was 230 ng/mL and the concentration at 24 h [1, 14] was 229 ng/mL. The concentration at 24 h [1, 15] was 148 ng/mL, the concentration at 24 h [1, 12] was 202 ± 47 ng/mL and the IC50 (M. fascicularis Ntcp) was 200 nM.
